Laboratory results: ChEMBL document CHEMBL5143624, “WCK 1152, WCK 1153: Discovery and structure activity relationship for the treatment of resistant pneumococcal and staphylococcal respiratory infections” (Bioorg Med Chem Lett, 2022)
Converted amounts (≈) assume the structure as drawn.

Experiments:
Streptococcus pneumoniae [1] = test: Antibacterial activity against Streptococcus pneumoniae assessed as inhibition of bacterial growth incubated for 18 hrs by CLSI based serial agar dilution method; assay type: functional; conditions: Streptococcus pneumoniae, 18 h, read-out: MIC
Staphylococcus aureus [2] = test: Antibacterial activity against methicillin resistant Staphylococcus aureus assessed as inhibition of bacterial growth incubated for 18 hrs by CLSI based serial agar dilution method; assay type: functional; conditions: Staphylococcus aureus, read-out: MIC
Streptococcus pneumoniae [3] = test: Antibacterial activity against fluoroquinolone efflux positive Streptococcus pneumoniae 706 assessed as inhibition of bacterial growth incubated for 18 hrs by CLSI based serial agar dilution method; assay type: functional
Streptococcus pneumoniae [4] = test: Antibacterial activity against Streptococcus pneumoniae 5844 harbouring moxifloxacin resistant DNA gyrase and topoisomerase IV mutant assessed as inhibition of bacterial growth incubated for 18 hrs by CLSI based serial agar dilution method; assay type: functional; conditions: Streptococcus pneumoniae, 5844, 18 h
Staphylococcus aureus [5] = test: Antibacterial activity against methicillin resistant Staphylococcus aureus 032 assessed as inhibition of bacterial growth incubated for 18 hrs by CLSI based serial agar dilution method; assay type: functional
Staphylococcus aureus [6] = test: Antibacterial activity against methicillin resistant Staphylococcus aureus 5076 harbouring DNA gyrase and topoisomerase IV mutant and efflux pump assessed as inhibition of bacterial growth incubated for 18 hrs in presence of efflux inhibitor by CLSI based serial agar dilution method; assay type: functional
Streptococcus pneumoniae [7] = test: Antibacterial activity against beta-lactams, macrolide and fluoroquinolone resistant Streptococcus pneumoniae 718 infected in po dosed Swiss mouse septicemia model assessed as protective dose administered on 1 and 5 hrs post infection and measured on day 7; assay type: functional, organism-based
Staphylococcus aureus [8] = test: Antibacterial activity against Staphylococcus aureus […] assessed as inhibition of bacterial growth incubated for 18 hrs by CLSI based serial agar dilution method; assay type: functional

Row | SMILES | MIC (Streptococcus pneumoniae [1]) | MIC (Staphylococcus aureus [2]) | other results
1 | CC1(C)CN(c2c(F)cc3c(=O)c(C(=O)O)cn(C4CC4)c3c2F)CCC1N (configuration not stated) | 0.4 µg/mL (≈ 1.02 µM) | 3.12 µg/mL (≈ 7.97 µM) | –
2 | CCC1CN(c2c(F)cc3c(=O)c(C(=O)O)cn(C4CC4)c3c2OC)CCC1N (configuration not stated) | 0.8 µg/mL (≈ 1.98 µM) | 0.1 µg/mL (≈ 0.248 µM) | –
3 | COc1c(N2CC(C)C(N)C(C)(C)C2)c(F)cc2c(=O)c(C(=O)O)cn(C3CC3)c12 (configuration not stated) | 0.2 µg/mL (≈ 0.479 µM) | 0.1 µg/mL (≈ 0.24 µM) | –
4 | CCNC1CCN(c2c(F)cc3c(=O)c(C(=O)O)cn(C4CC4)c3c2OC)CC1C (configuration not stated) | 1.56 µg/mL (≈ 3.74 µM) | 0.4 µg/mL (≈ 0.958 µM) | –
5 | COc1c(N2CCC(N)C(C)(C)C2)c(F)c(N)c2c(=O)c(C(=O)O)cn(C3CC3)c12 (configuration not stated) | 0.2 µg/mL (≈ 0.478 µM) | 3.12 µg/mL (≈ 7.46 µM) | –
6 | CC1(C)CN(c2ccc3c(=O)c(C(=O)O)cn(-c4ccc(F)cc4F)c3n2)CCC1N (configuration not stated) | 1.56 µg/mL (≈ 3.64 µM) | > 12.5 µg/mL | –
7 | CNC1CCN(c2c(F)cc3c(=O)c(C(=O)O)cn(C4CC4)c3c2OC)CC1(C)C (configuration not stated) | 1.56 µg/mL (≈ 3.74 µM) | 0.2 µg/mL (≈ 0.479 µM) | MIC (Streptococcus pneumoniae [3]): 1.56 µg/mL (≈ 3.74 µM)
8 | Cc1c(F)c(N2CCC(N)C(C)(C)C2)cc2c1c(=O)c(C(=O)O)cn2C1CC1 (configuration not stated) | 0.8 µg/mL (≈ 2.06 µM) | > 12.5 µg/mL | –
9 | CCC1(C)CN(c2c(F)cc3c(=O)c(C(=O)O)cn(C4CC4)c3c2OC)CCC1NC (configuration not stated) | – | – | MIC (Streptococcus pneumoniae [3]): 1.56 µg/mL (≈ 3.62 µM); MIC (Streptococcus pneumoniae [4]): 6.25 µg/mL (≈ 14.5 µM)
10 | COc1c(N2CC[C@@H](N)C(C)(C)C2)c(F)c(N)c2c(=O)c(C(=O)O)cn(C3CC3)c12 | 6.25 µg/mL (≈ 14.9 µM) | > 12.5 µg/mL | –
11 | COc1c(N2CCC(NC3CC3)C(C)C2)c(F)cc2c(=O)c(C(=O)O)cn(C3CC3)c12 (configuration not stated) | 1.56 µg/mL (≈ 3.63 µM) | 0.4 µg/mL (≈ 0.931 µM) | –
12 | Cc1c(F)c(N2CCC(N)C(C)(C)C2)nc2c1c(=O)c(C(=O)O)cn2-c1ccc(F)cc1F (configuration not stated) | 1.56 µg/mL (≈ 3.39 µM) | > 12.5 µg/mL | –
13 | CNC1C(C)CN(c2c(F)cc3c(=O)c(C(=O)O)cn(C4CC4)c3c2OC)CC1C (configuration not stated) | 0.4 µg/mL (≈ 0.958 µM) | 0.1 µg/mL (≈ 0.24 µM) | –
14 | Cc1c(N2CCC(N)C(C)C2)c(F)cc2c(=O)c(C(=O)O)cn(C3CC3)c12.Cl (configuration not stated) | – | – | MIC (Staphylococcus aureus [5]): 1.56 µg/mL
15 | CCC1(C)CN(c2c(F)cc3c(=O)c(C(=O)O)cn(C4CC4)c3c2OC)CCC1NC1CC1 (configuration not stated) | – | – | MIC (Streptococcus pneumoniae [3]): 0.4 µg/mL (≈ 0.874 µM); MIC (Streptococcus pneumoniae [4]): > 6.25 µg/mL
16 | COc1c(N2CC[C@@H](N)C(C)(C)C2)c(F)cc2c(=O)c(C(=O)O)cn(C3CC3)c12 | – | 0.05 µg/mL (≈ 0.124 µM) | MIC (Staphylococcus aureus [6]): 1.56 µg/mL; EC50 (Streptococcus pneumoniae [7]): 20 mg/kg; MIC (Staphylococcus aureus [8]): 0.05 µg/mL (≈ 0.124 µM); MIC (Staphylococcus aureus [5]; Staphylococcus aureus, 032, 18 h, read-out: MIC): 0.8 µg/mL (≈ 1.98 µM)
17 | COc1c(N2CC(C)C(N(C)C)C(C)C2)c(F)cc2c(=O)c(C(=O)O)cn(C3CC3)c12 (configuration not stated) | 0.2 µg/mL (≈ 0.463 µM) | 0.1 µg/mL (≈ 0.232 µM) | MIC (Streptococcus pneumoniae [3]): 0.2 µg/mL (≈ 0.463 µM)
18 | CCN(CC)C1CCN(c2c(F)cc3c(=O)c(C(=O)O)cn(C4CC4)c3c2OC)CC1 | 0.8 µg/mL (≈ 1.85 µM) | 0.2 µg/mL (≈ 0.463 µM) | –
19 | CCn1cc(C(=O)O)c(=O)c2cc(F)c(N3CCC(N)C(C)(C)C3)c(OC)c21 (configuration not stated) | 1.56 µg/mL (≈ 3.99 µM) | 6.25 µg/mL (≈ 16 µM) | –
20 | COc1c(N2CCC(NC(C)=O)C(C)(C)C2)c(F)cc2c(=O)c(C(=O)O)cn(C3CC3)c12 (configuration not stated) | 1.56 µg/mL (≈ 3.5 µM) | 0.4 µg/mL (≈ 0.898 µM) | –
21 | CCC1(CC)CN(c2c(F)cc3c(=O)c(C(=O)O)cn(C4CC4)c3c2OC)CCC1N (configuration not stated) | – | – | MIC (Streptococcus pneumoniae [3]): < 0.4 µg/mL; MIC (Streptococcus pneumoniae [4]): 6.25 µg/mL (≈ 14.5 µM)
22 | Cc1c(F)c(N2CCC(N)C(C)(C)C2)c(F)c2c1c(=O)c(C(=O)O)cn2C1CC1 (configuration not stated) | 0.1 µg/mL (≈ 0.247 µM) | 3.12 µg/mL (≈ 7.7 µM) | –
23 | CC1(C)CN(c2nc3c(cc2F)c(=O)c(C(=O)O)cn3C2CC2)CCC1N (configuration not stated) | 3.12 µg/mL (≈ 8.33 µM) | > 12.5 µg/mL | –
24 | COc1c(N2CCC(NC3CC3)C(C)(C)C2)c(F)cc2c(=O)c(C(=O)O)cn(C3CC3)c12 (configuration not stated) | 0.8 µg/mL (≈ 1.8 µM) | 0.2 µg/mL (≈ 0.451 µM) | MIC (Streptococcus pneumoniae [3]): 0.8 µg/mL (≈ 1.8 µM)
25 | COc1c(N2CCC(N)C(C)(C)C2)c(F)c(N)c2c(=O)c(C(=O)O)cn(-c3ccc(F)cc3F)c12 (configuration not stated) | 3.12 µg/mL (≈ 6.36 µM) | 12.5 µg/mL (≈ 25.5 µM) | –
26 | CC1(C)CN(c2c(F)c(N)c3c(=O)c(C(=O)O)cn(C4CC4)c3c2F)CCC1N (configuration not stated) | 0.1 µg/mL (≈ 0.246 µM) | 3.12 µg/mL (≈ 7.68 µM) | –
27 | CCC1(C)CN(c2c(F)cc3c(=O)c(C(=O)O)cn(C4CC4)c3c2OC)CCC1N (configuration not stated) | 0.2 µg/mL (≈ 0.479 µM) | 0.1 µg/mL (≈ 0.24 µM) | MIC (Streptococcus pneumoniae [4]): 2.5 µg/mL (≈ 5.99 µM)
28 | CNC1CCN(c2c(F)cc3c(=O)c(C(=O)O)cn(C4CC4)c3c2OC)CC1C (configuration not stated) | 1.56 µg/mL (≈ 3.87 µM) | 0.2 µg/mL (≈ 0.496 µM) | –
